Test results published in US20060165731A1, “Vaccines” (British Technology Group Ltd., priority 1986, published 2006).

Experiments:
Assay type in all cases: in vivo, Eimeria (in Cobb broiler chickens)
[1] = test system: seven homologous strains of each of the seven species of Eimeria; experiment: Vaccine trial in Cobb broiler chickens, homologous challenge
Source text: (§1) The vaccine of Example 3 was used in a trial conducted on 4,480 Cobb broiler chickens kept in floor pens. The concentration of xanthan gum in the vaccine was adjusted so that administration of 140 doses of vaccine to each drinking vessel provided a final xanthan gum concentration of 0.03%. The trial was designed to compare the performance of birds vaccinated with live attenuated coccidiosis vaccine of the invention and birds fed the coccidiostat, monensin, in the face of a challenge with seven homologous or seven heterologous strains of each of the seven species of Eimeria. The heterologous strains were chosen on the basis that they were either thought to be more pathogenic than the homologous ones or antigenically distinct.
(§2) Birds were penned in groups of 140. Four pens were allocated to each treatment and two pens were allocated to each control group. […] The allocation of pens to treatment was randomised throughout the broiler house. The design of the trial was as follows:
(§3) The vaccine was administered via the drinking water. The birds were fed a ration based on a commercial formulation which included the antibiotic growth promoter avoparcin at 10 ppm. The anticoccidial drugs were administered in the feed.
(§4) It should be noted that, in order to prevent infection by wild Eimeria strains, and consequent development of immunity, the two control groups were fed robenidine (30 ppm) for 28 days. One group received a heterologous challenge and the other received a homologous challenge.
(§5) All birds received an individual oral challenge administered by inoculation into the crop on day 31. The numbers of oocysts of each species in the challenge doses were as follows:—
(§6) Liveweights and cumulative feed intakes were measured on days 30, 37 and 49. Feed conversion ratios were calculated by dividing the feed intake by the gain in liveweight from day 1. Counts of oocysts in the litter were made for each pen at weekly intervals. On day 37, a sample of 5 birds from each pen (total 160) was culled and coccidiosis lesion scores were estimated. Scores were made on a scale of 0 to 3.5 in ascending severity of the lesions symptomatic of infection with E. acervulina, E. brunetti, E. maxima/necatrix (grouped together because they are difficult to distinguish) and E. tenella. Mean lesion scores were calculated.

[2] = test system: seven heterologous strains of each of the seven species of Eimeria; experiment: Vaccine trial in Cobb broiler chickens, heterologous challenge
Source text: as §1, §2, §3, §4, §5, §6

[3] = test system: seven homologous or seven heterologous strains of each of the seven species of Eimeria; experiment: Vaccine trial in Cobb broiler chickens, overall (homologous and heterologous challenge)
Source text: as §1, §2
The vaccine was administered via the drinking water. The birds were fed a ration based on a commercial formulation which included the antibiotic growth promoter avoparcin at 10 ppm. […]
Liveweights and cumulative feed intakes were measured on days 30, 37 and 49. Feed conversion ratios were calculated by dividing the feed intake by the gain in liveweight from day 1. […] Mean lesion scores were calculated.

## CC[C@@]1([C@@H]2O[C@@H]([C@H]3O[C@@](O)(CO)[C@H](C)C[C@@H]3C)C[C@@H]2C)CC[C@H]([C@]2(C)CC[C@]3(C[C@H](O)[C@@H](C)[C@@H]([C@@H](C)[C@@H](OC)[C@H](C)C(=O)O)O3)O2)O1 [Monensin, monensin]
[1]; Homologous challenge, day 37, scale of 0 to 3.5, control 0.2
  Mean Lesion Score E. acervulina: 0
[1]; Homologous challenge, day 37, scale of 0 to 3.5, control 0.40
  Mean Lesion Score E. brunetti: 0.03
[1]; Homologous challenge, day 37, scale of 0 to 3.5, control 1.25
  Mean Lesion Score E. maxima/necatrix: 0.13
[1]; Homologous challenge, day 37, scale of 0 to 3.5, control 2.25
  Mean Lesion Score E. tenella: 0.20
[1]; day 49, Homologous Challenge on day 31, control 2225
  LIVEWEIGHTS: 2489 g/bird
[2]; Heterologous challenge, day 37, scale of 0 to 3.5, control 0.30
  Mean Lesion Score E. acervulina: 0.10
[2]; Heterologous challenge, day 37, scale of 0 to 3.5, control 0.70
  Mean Lesion Score E. brunetti: 0
[2]; Heterologous challenge, day 37, scale of 0 to 3.5, control 2.00
  Mean Lesion Score E. maxima/necatrix: 0.95
[2]; Heterologous challenge, day 37, scale of 0 to 3.5, control 2.65
  Mean Lesion Score E. tenella: 1.53
[2]; after challenge with heterologous strains, on average, very high pen to pen variation
  Counts of oocysts in the litter, pens of monensin treated birds relative to pens of vaccinated birds: two or three times higher
[2]; day 49, Heterologous Challenge on day 31, control 2197
  LIVEWEIGHTS: 2407 g/bird
[2]; in each case lower than the controls
  Lesion scores for heterologous E. maxima/necatrix: Slightly elevated scores
[3]; compared with controls
  Lesion scores after either homologous or heterologous challenge: lower lesion scores
[3]; vaccine compared with monensin
  Protecting against coccidial challenge (performance of the birds, overall): equally effective
